Details of data set [1]: method as in PMID 24008177. The settings on record: cited from earlier work.
For another data set, the target named is T1, WT HIV-1 RT (Human immunodeficiency virus type 1 group M subtype B, UniProt P04585).
T1 construct: purchased Roche
Put plainly: biochemical. As for the experimental part:
Section 4. HIV-1 RT inhibition assays
A reverse transcriptase (RT) assay kit produced by Roche was selected for the RT inhibition assay.3 All the reagents for performing the RT reaction came with the kit and the ELSIA procedures for RT inhibition assay was carried out following the description in the kit protocol. Briefly, the reaction mixture containing template/primer complex, viral nucleotides (dNTPs) and RT in the incubation buffer with or without inhibitors was incubated for 1 h at 37 °C . After that, the reaction mixture was transferred to a streptavidine coated microtiter plate and incubated for another 1 h at 37 °C to make sure retranscriptional cDNA chain that consisted biotin labeled dNTPs bound to streptavidine. Then unbound dNTPs were removed using washing buffer and anti-DIG-POD working solution was added. After incubation for 1 h at 37 °C , the DIG-labeled dNTPs incorporated in cDNA were bound to the anti-DIG-POD antibody. The unbound

For data set [2] the following is noted: at pH 7.0; cited from earlier work.
A further data set concerns the target CYP2C19 (Homo sapiens, UniProt P33261). The data set is described as follows: CYP enzyme inhibition assay in human liver microsome, CYP2C19. The settings on record: read-out: IC50 CYP2C19; human liver microsome, probe substrate S-mephenytoin. The source says:
(§1) Section 8. CYP enzyme inhibition assay […]
(§2) Agilent 1200 LC/MSD (Agilent, USA).
(In general: Microsomes from liver hold many membrane-bound enzymes, among them those of drug oxidation.)

A further data set has as its target T2, CYP1A2 (Homo sapiens, UniProt P05177).
T2 sequence (P05177 1-516): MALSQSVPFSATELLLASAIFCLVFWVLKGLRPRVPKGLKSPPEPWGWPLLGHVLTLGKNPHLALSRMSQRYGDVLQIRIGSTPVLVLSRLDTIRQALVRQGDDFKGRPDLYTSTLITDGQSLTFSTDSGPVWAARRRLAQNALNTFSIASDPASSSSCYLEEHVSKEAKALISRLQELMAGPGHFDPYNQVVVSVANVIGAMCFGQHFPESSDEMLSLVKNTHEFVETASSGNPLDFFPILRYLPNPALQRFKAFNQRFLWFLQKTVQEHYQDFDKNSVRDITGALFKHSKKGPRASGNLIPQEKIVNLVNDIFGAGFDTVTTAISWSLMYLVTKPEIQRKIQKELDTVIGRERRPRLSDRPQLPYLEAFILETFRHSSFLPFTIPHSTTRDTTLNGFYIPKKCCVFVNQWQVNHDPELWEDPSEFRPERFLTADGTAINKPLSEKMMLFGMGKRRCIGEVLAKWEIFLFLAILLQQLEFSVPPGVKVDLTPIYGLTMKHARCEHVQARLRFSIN
The data set is described as follows: in vitro. The note with it: microsomes.
Excerpt: as §1, §2

The target in another data set is CYP3A4 (Homo sapiens, UniProt P08684). Put plainly: in vitro. The note with it: microsomes.
CYP3A4, sequence (P08684 whole entry): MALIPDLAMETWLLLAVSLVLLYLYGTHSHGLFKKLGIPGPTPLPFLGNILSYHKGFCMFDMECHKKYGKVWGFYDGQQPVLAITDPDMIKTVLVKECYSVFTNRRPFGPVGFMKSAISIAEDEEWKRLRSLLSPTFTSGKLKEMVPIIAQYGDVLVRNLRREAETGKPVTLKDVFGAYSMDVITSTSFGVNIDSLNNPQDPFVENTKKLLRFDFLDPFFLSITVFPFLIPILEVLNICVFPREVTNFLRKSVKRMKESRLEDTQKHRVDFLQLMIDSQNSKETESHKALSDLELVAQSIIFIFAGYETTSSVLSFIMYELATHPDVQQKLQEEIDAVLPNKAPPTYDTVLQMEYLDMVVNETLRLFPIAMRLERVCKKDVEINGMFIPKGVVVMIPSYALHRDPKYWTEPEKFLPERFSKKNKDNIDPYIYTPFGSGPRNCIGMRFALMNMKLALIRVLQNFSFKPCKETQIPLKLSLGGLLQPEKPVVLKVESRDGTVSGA
Excerpt: as §1, §2

The target in another data set is CYP2C9 (Homo sapiens, UniProt P11712). Put plainly: CYP enzyme inhibition assay in human liver microsome, CYP2C9. The settings on record: read-out: IC50 CYP2C9; human liver microsome, probe substrate diclofenac.
CYP2C9, sequence (P11712 whole entry): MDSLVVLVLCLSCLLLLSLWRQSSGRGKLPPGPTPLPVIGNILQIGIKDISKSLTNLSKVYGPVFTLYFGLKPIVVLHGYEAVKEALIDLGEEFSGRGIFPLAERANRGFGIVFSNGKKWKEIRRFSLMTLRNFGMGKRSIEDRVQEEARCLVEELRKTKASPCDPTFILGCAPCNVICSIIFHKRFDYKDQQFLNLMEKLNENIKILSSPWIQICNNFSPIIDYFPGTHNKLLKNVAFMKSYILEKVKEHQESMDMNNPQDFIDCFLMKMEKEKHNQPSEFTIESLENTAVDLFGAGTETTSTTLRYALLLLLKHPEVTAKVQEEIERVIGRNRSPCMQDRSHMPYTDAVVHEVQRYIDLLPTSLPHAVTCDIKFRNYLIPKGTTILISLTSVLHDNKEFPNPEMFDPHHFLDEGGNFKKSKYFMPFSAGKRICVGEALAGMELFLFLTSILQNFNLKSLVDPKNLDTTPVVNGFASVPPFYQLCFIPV
Excerpt: as §1, §2

Another data set concerns HIV-1 K103N. Put plainly: Anti-HIV-1 activity against K103N mutant strain, MTT method in MT-4 cells. It is filed as cell-based. The settings on record: Human immunodeficiency virus 1, MT4, read-out: EC50 K103N. An excerpt: (§3) According to the anti-HIV-1(WT) results, the promising compounds 18a(1–5), 18b(1–5) and 18c1 were chosen to further evaluate their inhibitory potency against the prevalent HIV-1 mutations, including L100I, K103N, Y181C, Y188L, E138K, and F227L/V106A. […]. page 20:
(§4) or mock-infected wells of the microtiter tray. Mock-infected cells were used to evaluate
(§5) supernatant was discarded.
(§6) Five days after infection,
(§7) 4 cells by 50%. […]

Another data set has as its system HIV-1 E138K. Put plainly: microbe, parasite or virus in culture. The format is cell-based. The settings on record: Human immunodeficiency virus 1, MT4, read-out: EC50 E138K. Here is the method:
(§8) compounds were made directly in flat-bottomed 96-well microtiter trays by adding 100 μL medium to the 25 μL stock solution and transferring 25 μL of this solution to another well that contained 100 μL medium using a Biomek 3000 robot (Beckman Instruments, Fullerton, CA). Untreated control HIV- and mock-infected cell samples were included for each sample. HIV-1 WT strain (IIIB), HIV-1 drug-resistant strains including […]
(§9) (50% cell culture infectious dose) or culture medium was added to either the infected or mock-infected wells of the microtiter tray. Mock-infected cells were used to evaluate the effect of test compounds on uninfected cells in order to assess its cytotoxicity.
(§10) Exponentially growing MT-4 cells were centrifuged for 5 min at 1000 rpm and the supernatant was discarded.
(§11) 50 μL volumes were transferred to the microtiter tray wells. Five days after infection, the viability of mock- and HIV-infected cells was examined spectrophotometrically by […]
(§12) concentration of the test compound that reduced the viability of the mock-infected MT- […]

Another data set addresses CYP2D6 (Homo sapiens, UniProt P10635). The data set is described as follows: in vitro. Here is the method: Fig. S3 Decomposition of the binding free energy (per-residue) into contributions from electrostatic energy, vdw energy, polar solvation energy, and non-polar solvation energy. a K103N-18b1. b […]
Section 7. Water solubility measurements
Water solubility was measured in phosphate buffer at pH 7.0 by using an HPLC-UV method.17 Compounds were initially dissolved in DMSO at 10 mg/mL 10 μL of this stock solution was spiked into purified water (1 mL) with the final DMSO concentration being 1%. The mixture was ultrasonic for 2 h at room temperature and restored at room temperature overnight. The saturated solution was filtrated through a filter membrane (pore size = 0.22 μm) and transferred to other Eppendorf tubes for analysis by HPLC-UV. The sample was performed in triplicate. For quantification, a model LC-20AT HPLC-UV (SHIMADZU) system was used with an Inertsil ® ODS-SP-C18 column (150 mm × 4.6 mm, 5 μm) and MeOH/water as eluant. The flow rate was 1.0 mL/min, and injection volume was 20 μL. Aqueous concentration was determined by comparison of the peak area of the saturated solution with a standard curve plotted peak area versus known concentrations, which were prepared by solutions in MeOH at 200, […]
as §1
Section 9. Pharmacokinetics studies […]
approval from the Animal Ethical and Welfare Committee (AEWC). Ten male […]
Blood samples (200 μL of blood
Briefly, 50 μL of plasma was […]
tube, which was centrifuged at 3000g for 10 min. The supernatant layer was collected […]
Standard curves for 18b1 in […]
with an internal standard to blank plasma. Then all samples were quantified with an […]

The next data set deals with HIV-1 Y181C. Put plainly: Anti-HIV-1 activity against Y181C mutant strain, MTT method in MT-4 cells. The format is cell-based. The note with it: Human immunodeficiency virus 1, MT4, read-out: EC50 Y181C, MT-4 cells, MTT method, mean ± SD, n ≥ 4.
Excerpt: as §4, §5, §6, §7

In the next data set the test system is HIV-1 Y188L. Put plainly: Anti-HIV-1 activity against Y188L mutant strain, MTT method in MT-4 cells. The format is cell-based. The settings on record: Human immunodeficiency virus 1, MT4, read-out: EC50 Y188L.
Excerpt: as §3, §4, §5, §6, §7

Another data set relates to HIV-1 F227L/V106A. The data set is described as follows: Anti-HIV-1 activity against F227L/V106A mutant strain, MTT method in MT-4 cells. It is filed as cell-based. The settings on record: Human immunodeficiency virus 1, MT4, read-out: EC50 F227L/V106A.
Excerpt: as §3, §4, §5, §6, §7

In data set [3] the test system is HIV-1 K103N/Y181C double mutant (RES056). Put plainly: microbe, parasite or virus in culture. The settings on record: Human immunodeficiency virus 1, MT4, read-out: EC50 RES056. It is filed as cell-based. As for the experimental part: (§13) The biological results were determined as EC50 (anti-HIV potency), CC50 (cytotoxicity) and SI (selectivity index, the ratio of CC50/EC50). […]
as §8, §9, §10, §11, §12

The test system of another data set is HIV-1 WT (IIIB). Put plainly: microbe, parasite or virus in culture. The note with it: Human immunodeficiency virus 1, IIIB, MT4; MT-4 cells, MTT method, mean ± SD, n ≥ 4; read-out: EC50 IIIB. The format is cell-based. Here is the method: as §13, §8, §9, §10, §11, §12
In general terms: Formazan colour is commonly taken as a measure of viable cells.

Marks after values point to notes of the source that are not given here.

CYP2D6, sequence (P10635 whole entry): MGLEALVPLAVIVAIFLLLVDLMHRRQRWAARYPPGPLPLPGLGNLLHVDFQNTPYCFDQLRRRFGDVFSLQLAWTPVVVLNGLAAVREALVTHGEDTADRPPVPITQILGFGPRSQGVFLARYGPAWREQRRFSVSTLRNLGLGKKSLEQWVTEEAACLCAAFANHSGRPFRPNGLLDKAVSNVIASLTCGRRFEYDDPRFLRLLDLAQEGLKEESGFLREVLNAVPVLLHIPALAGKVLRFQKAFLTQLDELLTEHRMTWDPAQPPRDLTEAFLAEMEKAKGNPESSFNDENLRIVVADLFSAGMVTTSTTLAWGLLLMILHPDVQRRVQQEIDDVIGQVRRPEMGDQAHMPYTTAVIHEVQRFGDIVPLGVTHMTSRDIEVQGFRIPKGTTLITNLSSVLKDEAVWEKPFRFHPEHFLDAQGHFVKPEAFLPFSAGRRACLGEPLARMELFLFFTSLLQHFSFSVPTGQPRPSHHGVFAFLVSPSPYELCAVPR
CYP2C19, sequence (P33261 whole entry): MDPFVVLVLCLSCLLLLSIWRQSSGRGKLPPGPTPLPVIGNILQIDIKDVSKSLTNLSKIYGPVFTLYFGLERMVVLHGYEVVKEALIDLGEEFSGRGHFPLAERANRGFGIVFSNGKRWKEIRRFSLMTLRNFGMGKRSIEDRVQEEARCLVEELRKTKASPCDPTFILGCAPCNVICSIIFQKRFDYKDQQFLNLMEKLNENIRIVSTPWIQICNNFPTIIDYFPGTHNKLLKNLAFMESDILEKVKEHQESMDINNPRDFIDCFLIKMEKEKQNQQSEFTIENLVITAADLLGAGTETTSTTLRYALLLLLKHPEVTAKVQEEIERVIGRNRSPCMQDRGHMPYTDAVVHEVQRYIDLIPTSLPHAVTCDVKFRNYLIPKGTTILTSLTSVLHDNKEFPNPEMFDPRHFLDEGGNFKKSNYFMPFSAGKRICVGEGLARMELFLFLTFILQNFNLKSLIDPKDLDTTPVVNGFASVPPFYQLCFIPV

A word on the IC50: it is the midpoint of a concentration-inhibition curve. `Cc1cc(C#N)cc(C)c1Oc1nc(Nc2ccc(C#N)cc2)nc(N)c1Br` [ETR, etravirine]: the “oral bioavailability (F)” value in data set [1] is “undetectable”. The IC50 against WT HIV-1 RT worked out at 1350 ± 350 nM; on CYP2C19 it was 496 nM; at CYP2C9, 277 nM; on CYP2D6 (read-out: IC50 CYP2D6, human liver microsome, probe substrate dextromethorphan) it was 12000 nM. In addition, the water solubility in data set [2] is <1^e μg/mL. Also, the IC50 at 10 min on CYP1A2 was over 10000 nM; against CYP3A4, over 10000 nM; at CYP2D6 (human, microsomes, IC50 CYP2D6), over 10000 nM. The EC50 worked out at 4.3 ± 1 nM in the data set on HIV-1 K103N; 18 ± 7.2 nM in the data set on HIV-1 E138K; 18 ± 3.8 nM in the data set with HIV-1 Y181C; 25 ± 7.6 nM in the data set with HIV-1 Y188L; 25 ± 7.2 nM in the data set with HIV-1 F227L/V106A; 76 ± 25 nM in [3]. Further, the EC50 with HIV-1 WT (IIIB) is 3.3 ± 0.38 nM.

The values above are taken from publication PMC10148624, “Discovery of diarylpyrimidine derivatives bearing piperazine sulfonyl as potent HIV-1 nonnucleoside reverse transcriptase inhibitors” (Communications Chemistry, 2023).
